{"source": "ChEMBL document CHEMBL5634092", "about": "“Design, synthesis, and biological evaluation of novel HDAC/CD13 dual inhibitors for the treatment of cancer” (Eur J Med Chem, 2023)", "key": {"Aminopeptidase N [1]": {"target": "Aminopeptidase N (Homo sapiens, UniProt P15144)", "sequence (P15144 whole entry)": "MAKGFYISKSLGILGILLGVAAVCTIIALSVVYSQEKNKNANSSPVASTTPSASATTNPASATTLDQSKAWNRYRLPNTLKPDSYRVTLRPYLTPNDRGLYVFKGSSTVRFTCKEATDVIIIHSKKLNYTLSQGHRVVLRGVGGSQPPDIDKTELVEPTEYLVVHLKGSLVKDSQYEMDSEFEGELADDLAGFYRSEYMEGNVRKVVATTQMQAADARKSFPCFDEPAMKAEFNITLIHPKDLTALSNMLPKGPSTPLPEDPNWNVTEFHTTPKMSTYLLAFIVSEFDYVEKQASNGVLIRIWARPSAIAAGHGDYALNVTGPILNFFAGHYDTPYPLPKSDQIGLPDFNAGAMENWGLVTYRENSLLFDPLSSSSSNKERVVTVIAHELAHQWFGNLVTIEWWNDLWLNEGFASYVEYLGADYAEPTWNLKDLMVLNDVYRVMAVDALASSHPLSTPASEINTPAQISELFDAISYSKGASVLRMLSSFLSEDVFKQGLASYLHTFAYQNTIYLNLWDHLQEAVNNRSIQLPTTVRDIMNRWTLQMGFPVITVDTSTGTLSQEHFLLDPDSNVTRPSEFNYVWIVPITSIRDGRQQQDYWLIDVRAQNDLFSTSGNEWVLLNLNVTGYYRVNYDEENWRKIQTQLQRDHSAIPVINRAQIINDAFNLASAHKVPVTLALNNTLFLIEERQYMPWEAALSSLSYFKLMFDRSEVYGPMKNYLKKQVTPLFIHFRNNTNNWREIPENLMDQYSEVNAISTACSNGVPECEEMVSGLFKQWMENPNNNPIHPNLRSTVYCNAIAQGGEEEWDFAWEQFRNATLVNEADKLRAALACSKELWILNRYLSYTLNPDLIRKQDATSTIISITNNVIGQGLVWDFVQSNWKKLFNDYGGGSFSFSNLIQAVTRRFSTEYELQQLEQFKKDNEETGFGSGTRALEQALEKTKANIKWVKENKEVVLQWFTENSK", "experiment": "Inhibition of human CD13 using L-leucine-p-nitroanilide as substrate incubated for 30 mins by microplate reader analysis"}, "[2]": {"target": "T1, Polyamine deacetylase HDAC10 (Homo sapiens, UniProt Q969S8)", "T1 sequence (Q969S8 whole entry)": "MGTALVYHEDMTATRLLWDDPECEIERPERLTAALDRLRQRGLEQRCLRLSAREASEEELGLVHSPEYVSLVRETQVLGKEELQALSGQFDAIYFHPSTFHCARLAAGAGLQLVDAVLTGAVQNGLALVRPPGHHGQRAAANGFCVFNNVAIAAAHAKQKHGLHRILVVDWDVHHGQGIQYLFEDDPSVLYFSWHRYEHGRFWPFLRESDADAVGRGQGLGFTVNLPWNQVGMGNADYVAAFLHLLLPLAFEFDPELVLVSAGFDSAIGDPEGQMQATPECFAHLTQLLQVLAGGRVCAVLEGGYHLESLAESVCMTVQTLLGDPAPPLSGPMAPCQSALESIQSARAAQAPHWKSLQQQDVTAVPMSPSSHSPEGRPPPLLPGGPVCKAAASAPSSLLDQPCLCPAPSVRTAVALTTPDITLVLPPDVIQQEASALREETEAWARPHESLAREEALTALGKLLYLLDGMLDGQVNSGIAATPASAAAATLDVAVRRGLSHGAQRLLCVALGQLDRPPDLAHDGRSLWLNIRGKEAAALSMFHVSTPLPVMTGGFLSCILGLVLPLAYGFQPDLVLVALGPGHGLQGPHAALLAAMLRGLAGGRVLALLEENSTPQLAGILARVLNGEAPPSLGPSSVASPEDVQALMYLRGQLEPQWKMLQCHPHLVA", "experiment": "Inhibition of human HDAC10 using Boc-Lys (tri-fluoroacetyl)-AMC as substrate incubated for 1 hr followed by substrate addition and further incubated for 2 hrs by fluorescence assay"}, "Histone deacetylase 8": {"target": "T2, Histone deacetylase 8 (Homo sapiens, UniProt Q9BY41)", "T2 sequence (Q9BY41 whole entry)": "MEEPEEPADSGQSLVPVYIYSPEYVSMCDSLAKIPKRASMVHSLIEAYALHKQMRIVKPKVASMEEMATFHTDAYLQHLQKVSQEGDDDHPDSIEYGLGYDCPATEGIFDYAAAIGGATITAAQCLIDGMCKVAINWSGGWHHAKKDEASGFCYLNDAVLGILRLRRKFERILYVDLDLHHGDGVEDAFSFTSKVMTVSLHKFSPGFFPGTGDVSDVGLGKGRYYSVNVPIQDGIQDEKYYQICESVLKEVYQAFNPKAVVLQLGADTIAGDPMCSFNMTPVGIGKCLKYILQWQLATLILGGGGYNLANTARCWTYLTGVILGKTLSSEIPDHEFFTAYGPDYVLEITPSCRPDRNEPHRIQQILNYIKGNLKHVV", "experiment": "Inhibition of human HDAC8 using Boc-Lys (tri-fluoroacetyl)-AMC as substrate incubated for 1 hr followed by substrate addition and further incubated for 2 hrs by fluorescence assay"}, "Histone deacetylase 4": {"target": "Histone deacetylase 4 (Homo sapiens, UniProt P56524)", "sequence (P56524 whole entry)": "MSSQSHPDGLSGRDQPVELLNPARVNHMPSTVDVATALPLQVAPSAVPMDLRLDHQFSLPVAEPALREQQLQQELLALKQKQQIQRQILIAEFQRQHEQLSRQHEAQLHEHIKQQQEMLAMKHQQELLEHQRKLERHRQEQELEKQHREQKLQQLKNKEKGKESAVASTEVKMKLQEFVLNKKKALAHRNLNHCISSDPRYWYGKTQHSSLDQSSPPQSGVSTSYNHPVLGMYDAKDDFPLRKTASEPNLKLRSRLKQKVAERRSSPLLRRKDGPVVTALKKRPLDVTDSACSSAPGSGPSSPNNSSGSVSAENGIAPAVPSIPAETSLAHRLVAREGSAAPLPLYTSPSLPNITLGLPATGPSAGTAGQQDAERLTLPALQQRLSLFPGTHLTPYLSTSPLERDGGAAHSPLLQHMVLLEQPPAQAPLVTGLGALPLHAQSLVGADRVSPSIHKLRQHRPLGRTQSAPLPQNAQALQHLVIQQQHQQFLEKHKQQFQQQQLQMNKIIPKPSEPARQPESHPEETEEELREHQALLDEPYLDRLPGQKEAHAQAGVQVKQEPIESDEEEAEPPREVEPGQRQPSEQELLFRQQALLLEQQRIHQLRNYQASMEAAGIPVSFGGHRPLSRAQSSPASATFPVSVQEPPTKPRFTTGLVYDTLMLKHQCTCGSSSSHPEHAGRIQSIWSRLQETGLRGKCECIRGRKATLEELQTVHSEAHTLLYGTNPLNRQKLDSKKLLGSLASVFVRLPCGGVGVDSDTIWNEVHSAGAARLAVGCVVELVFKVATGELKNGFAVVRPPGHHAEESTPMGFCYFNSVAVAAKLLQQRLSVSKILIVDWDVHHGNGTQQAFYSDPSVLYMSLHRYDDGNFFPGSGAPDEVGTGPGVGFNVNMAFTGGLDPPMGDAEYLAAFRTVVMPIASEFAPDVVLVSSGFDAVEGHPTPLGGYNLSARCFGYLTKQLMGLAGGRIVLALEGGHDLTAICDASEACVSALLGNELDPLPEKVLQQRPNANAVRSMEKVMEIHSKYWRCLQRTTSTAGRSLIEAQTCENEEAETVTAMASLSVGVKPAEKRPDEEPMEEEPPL", "experiment": "Inhibition of human HDAC4 using Boc-Lys (tri-fluoroacetyl)-AMC as substrate incubated for 1 hr followed by substrate addition and further incubated for 2 hrs by fluorescence assay"}, "Histone deacetylase 9": {"target": "Histone deacetylase 9 (Homo sapiens, UniProt Q9UKV0)", "sequence (Q9UKV0 whole entry)": "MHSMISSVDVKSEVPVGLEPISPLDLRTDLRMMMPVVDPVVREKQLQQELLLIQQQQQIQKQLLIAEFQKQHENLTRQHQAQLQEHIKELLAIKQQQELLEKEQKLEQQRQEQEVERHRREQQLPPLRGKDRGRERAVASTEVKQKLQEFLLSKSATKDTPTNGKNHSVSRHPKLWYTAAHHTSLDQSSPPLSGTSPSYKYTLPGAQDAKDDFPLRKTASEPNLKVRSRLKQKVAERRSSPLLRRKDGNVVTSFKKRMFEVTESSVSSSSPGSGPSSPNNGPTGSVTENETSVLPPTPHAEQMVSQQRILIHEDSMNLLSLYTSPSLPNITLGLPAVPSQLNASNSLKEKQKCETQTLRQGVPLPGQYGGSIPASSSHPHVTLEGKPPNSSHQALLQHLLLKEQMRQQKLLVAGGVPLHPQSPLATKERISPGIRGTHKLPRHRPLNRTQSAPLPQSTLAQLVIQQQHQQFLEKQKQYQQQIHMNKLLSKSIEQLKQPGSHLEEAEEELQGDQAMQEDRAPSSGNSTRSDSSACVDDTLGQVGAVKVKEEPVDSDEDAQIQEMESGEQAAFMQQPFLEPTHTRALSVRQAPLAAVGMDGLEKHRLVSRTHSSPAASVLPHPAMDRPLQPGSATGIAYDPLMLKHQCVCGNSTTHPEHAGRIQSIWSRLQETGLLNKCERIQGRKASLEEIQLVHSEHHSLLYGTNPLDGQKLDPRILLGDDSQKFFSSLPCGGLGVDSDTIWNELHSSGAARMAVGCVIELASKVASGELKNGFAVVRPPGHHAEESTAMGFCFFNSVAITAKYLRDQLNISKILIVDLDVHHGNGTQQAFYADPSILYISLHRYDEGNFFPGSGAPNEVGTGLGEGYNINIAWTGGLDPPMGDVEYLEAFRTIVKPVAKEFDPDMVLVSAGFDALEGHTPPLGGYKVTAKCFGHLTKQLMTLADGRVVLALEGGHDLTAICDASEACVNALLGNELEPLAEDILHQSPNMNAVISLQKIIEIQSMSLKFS", "experiment": "Inhibition of human HDAC9 using Boc-Lys (tri-fluoroacetyl)-AMC as substrate incubated for 1 hr followed by substrate addition and further incubated for 2 hrs by fluorescence assay"}, "[3]": {"experiment": "Stability of compound in rat liver homogenate at 0.4 mg/mL measured after 24 hrs by HPLC analysis", "format": "ADME, tissue-based", "conditions": "tissue homogenate"}, "Aminopeptidase N [4]": {"target": "T3, Aminopeptidase N (Sus scrofa, UniProt P15145)", "T3 sequence (P15145 whole entry)": "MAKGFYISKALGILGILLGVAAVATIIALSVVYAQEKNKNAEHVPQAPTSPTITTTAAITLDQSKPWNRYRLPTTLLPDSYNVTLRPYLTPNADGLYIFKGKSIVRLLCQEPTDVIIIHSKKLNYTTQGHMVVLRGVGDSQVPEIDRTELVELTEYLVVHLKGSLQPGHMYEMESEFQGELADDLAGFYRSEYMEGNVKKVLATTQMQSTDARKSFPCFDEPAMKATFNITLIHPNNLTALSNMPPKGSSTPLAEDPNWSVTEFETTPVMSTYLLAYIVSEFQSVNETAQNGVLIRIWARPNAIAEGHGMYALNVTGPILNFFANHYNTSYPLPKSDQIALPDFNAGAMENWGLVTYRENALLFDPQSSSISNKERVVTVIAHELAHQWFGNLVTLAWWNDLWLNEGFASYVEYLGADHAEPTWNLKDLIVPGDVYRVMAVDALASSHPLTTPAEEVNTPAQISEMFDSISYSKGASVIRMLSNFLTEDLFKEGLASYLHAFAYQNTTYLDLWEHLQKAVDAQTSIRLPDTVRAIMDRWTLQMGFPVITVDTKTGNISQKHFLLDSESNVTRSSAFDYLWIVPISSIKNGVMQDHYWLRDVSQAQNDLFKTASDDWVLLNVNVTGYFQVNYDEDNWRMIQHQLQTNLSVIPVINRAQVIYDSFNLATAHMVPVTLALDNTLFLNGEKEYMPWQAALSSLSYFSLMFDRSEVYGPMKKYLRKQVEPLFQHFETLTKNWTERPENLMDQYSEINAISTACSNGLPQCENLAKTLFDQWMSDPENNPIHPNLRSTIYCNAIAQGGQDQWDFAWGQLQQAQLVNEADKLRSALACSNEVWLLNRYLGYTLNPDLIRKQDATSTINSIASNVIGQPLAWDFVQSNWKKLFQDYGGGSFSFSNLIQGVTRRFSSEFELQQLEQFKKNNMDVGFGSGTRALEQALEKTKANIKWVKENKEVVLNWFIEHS", "experiment": "Inhibition of porcine kidney CD13 using L-leucine-p-nitroanilide as substrate incubated for 30 mins by microplate reader analysis"}, "[5]": {"experiment": "Stability of compound in artificial gastric juice at 0.4 mg/mL measured after 24 hrs by HPLC analysis", "format": "ADME", "conditions": "simulated gi fluid"}}}
{"compound": "CCCNNC(=O)c1ccc(CNC(=O)[C@H](CC(C)C)NC(=O)[C@@H](O)[C@H](N)Cc2ccccc2)cc1.Cl", "values": [{"measurement": "IC50", "setting": "Aminopeptidase N [1]", "value": 0.34, "unit": "µM"}, {"measurement": "IC50", "setting": "[2]", "value": "> 10", "unit": "µM"}, {"measurement": "IC50", "setting": "Histone deacetylase 8", "value": 4.65, "unit": "µM"}, {"measurement": "IC50", "setting": "Histone deacetylase 4", "value": "> 10", "unit": "µM"}, {"measurement": "IC50", "setting": "Histone deacetylase 9", "value": "> 10", "unit": "µM"}, {"measurement": "Stability", "setting": "[3]", "value": "Stable"}, {"measurement": "IC50", "setting": "Aminopeptidase N [4]", "value": 0.53, "unit": "µM"}, {"measurement": "Stability", "setting": "[5]", "value": "Stable"}]}
